Assay results reported in ChEMBL document CHEMBL4138087, “Designing multi-targeted agents: An emerging anticancer drug discovery paradigm” (Eur J Med Chem, 2017).

What was measured:
A-431 [1] = assay: Antiproliferative activity in human A431 Cells after 72 hrs by SRB assay; type: functional, cell-based; details: A-431, 72 h
A-431 [2] = assay: Potency index, ratio of temozolomide IC50 to compound IC50 for human A431 Cells; type: functional
[3] = molecular target: Epidermal growth factor receptor (Homo sapiens, UniProt P00533); assay: Inhibition of human A431 cells derived EGFR by ELISA
[4] = molecular target: Proto-oncogene tyrosine-protein kinase Src (Homo sapiens, UniProt P12931); assay: Inhibition of Src kinase (unknown origin)
Sequence of Proto-oncogene tyrosine-protein kinase Src (P12931 2-536 limits assumed): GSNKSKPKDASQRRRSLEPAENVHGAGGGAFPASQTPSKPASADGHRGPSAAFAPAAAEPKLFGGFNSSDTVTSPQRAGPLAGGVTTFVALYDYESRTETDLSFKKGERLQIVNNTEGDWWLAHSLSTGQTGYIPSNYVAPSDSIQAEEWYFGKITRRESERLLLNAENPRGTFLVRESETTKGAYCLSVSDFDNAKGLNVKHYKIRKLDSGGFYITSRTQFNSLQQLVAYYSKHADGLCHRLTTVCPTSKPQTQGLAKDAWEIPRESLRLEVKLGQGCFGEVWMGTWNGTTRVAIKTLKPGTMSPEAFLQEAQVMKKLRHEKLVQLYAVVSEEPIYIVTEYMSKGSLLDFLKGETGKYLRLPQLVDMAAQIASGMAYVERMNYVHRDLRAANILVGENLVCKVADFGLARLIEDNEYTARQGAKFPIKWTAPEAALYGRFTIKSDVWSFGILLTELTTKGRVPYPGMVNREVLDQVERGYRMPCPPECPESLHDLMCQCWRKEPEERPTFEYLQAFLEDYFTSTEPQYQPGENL

Sequence of Epidermal growth factor receptor (P00533 whole entry): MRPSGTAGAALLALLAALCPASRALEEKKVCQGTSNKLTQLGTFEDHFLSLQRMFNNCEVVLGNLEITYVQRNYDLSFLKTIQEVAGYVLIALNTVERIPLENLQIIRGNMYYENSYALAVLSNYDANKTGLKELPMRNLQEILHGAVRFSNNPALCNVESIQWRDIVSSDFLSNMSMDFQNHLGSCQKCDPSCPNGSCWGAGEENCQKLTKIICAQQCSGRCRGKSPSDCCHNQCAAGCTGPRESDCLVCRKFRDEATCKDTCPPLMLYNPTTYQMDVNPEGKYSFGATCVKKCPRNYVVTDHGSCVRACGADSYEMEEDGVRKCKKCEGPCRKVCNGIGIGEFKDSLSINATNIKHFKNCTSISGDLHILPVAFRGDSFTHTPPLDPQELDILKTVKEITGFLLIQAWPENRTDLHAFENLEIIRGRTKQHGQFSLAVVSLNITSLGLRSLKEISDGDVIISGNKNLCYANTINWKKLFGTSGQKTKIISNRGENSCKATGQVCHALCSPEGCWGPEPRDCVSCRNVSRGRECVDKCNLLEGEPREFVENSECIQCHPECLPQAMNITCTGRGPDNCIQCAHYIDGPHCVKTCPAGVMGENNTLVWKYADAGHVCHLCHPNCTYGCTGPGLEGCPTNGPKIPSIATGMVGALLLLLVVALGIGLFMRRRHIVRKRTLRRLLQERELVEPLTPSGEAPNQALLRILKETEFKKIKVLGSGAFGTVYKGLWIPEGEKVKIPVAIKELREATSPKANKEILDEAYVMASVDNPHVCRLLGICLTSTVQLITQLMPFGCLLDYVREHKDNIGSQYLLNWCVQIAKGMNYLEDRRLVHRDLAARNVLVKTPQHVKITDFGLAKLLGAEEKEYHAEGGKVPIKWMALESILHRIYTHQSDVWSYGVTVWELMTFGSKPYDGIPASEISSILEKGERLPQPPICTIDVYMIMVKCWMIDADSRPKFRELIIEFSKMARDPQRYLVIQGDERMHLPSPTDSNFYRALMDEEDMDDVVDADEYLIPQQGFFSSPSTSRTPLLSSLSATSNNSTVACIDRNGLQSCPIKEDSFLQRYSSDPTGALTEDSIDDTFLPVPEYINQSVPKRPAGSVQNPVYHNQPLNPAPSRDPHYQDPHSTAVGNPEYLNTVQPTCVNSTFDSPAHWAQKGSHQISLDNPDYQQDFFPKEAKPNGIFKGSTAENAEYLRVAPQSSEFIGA

Row | IC50 (A-431 [1]) | IC50 [3] | IC50 [4] | Compound | Ratio IC50 (A-431 [2])
1 | 36 µM |  |  | C/N=N/Nc1ccc2ncnc(Nc3cccc(C)c3)c2c1 | 10
2 | 59 µM |  |  | Cc1cccc(Nc2ncnc3ccc(N)cc23)c1 | 
3 |  | 0.32 µM | 2.9 µM | CN(CCN(C)Cc1ccc(C(=O)Nc2ccc3ncnc(Nc4cccc(Cl)c4)c3c2)cc1)CCn1nc(-c2ccc(Cl)cc2)c2c(N)ncnc21 | 
